From patent publication US7973034B2, “Amide, aryl sulfonamide, aryl urea, and α,β-diketone derived carboxylesterase inhibitors, and their methods of use” (priority 2003, dated 2011)
Where two headings read alike, the source gives them in different places.

What was measured:
[1] = target: T1, human small intestine carboxylesterase (hiCE) (Homo sapiens, UniProt O00748); test: biochemical; type: biochemical
T1 sequence (O00748 27-559): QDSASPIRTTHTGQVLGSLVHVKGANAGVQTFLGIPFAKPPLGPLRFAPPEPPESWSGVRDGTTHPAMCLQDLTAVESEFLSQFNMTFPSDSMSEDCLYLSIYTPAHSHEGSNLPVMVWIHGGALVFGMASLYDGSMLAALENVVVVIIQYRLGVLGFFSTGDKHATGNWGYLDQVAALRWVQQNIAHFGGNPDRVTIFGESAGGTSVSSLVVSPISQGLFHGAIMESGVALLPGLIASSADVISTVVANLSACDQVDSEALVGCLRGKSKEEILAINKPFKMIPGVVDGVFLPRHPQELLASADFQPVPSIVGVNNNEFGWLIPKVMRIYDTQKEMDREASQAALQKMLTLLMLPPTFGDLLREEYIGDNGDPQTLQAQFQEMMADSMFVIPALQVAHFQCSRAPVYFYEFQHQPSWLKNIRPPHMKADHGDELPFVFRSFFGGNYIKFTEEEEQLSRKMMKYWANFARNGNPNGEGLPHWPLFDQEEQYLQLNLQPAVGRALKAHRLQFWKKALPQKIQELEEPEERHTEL

[2] = target: T2, human liver carboxylesterase (hCE1) (Homo sapiens, UniProt P23141); test: biochemical; type: biochemical
T2 sequence (P23141 18-567): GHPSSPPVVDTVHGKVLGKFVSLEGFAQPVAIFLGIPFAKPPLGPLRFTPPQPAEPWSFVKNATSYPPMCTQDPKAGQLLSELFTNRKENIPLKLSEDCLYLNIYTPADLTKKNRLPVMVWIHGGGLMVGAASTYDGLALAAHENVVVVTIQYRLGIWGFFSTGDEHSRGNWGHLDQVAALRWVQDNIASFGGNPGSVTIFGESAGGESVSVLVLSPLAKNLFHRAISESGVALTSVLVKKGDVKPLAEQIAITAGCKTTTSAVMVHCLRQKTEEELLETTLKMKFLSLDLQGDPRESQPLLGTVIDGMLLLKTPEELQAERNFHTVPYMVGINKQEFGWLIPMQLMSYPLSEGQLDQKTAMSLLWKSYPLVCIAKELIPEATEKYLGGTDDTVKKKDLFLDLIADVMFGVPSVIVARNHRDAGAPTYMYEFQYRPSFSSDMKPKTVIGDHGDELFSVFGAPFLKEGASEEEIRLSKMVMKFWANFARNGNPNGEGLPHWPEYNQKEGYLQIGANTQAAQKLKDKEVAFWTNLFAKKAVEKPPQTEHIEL

[3] = target: human butyrylcholinesterase (hBuChE) (Homo sapiens, UniProt P06276); test: biochemical
[4] = target: T3, rabbit liver carboxylesterase (rCE) (Oryctolagus cuniculus, UniProt P12337); test: biochemical; type: biochemical
T3 sequence (P12337 19-565): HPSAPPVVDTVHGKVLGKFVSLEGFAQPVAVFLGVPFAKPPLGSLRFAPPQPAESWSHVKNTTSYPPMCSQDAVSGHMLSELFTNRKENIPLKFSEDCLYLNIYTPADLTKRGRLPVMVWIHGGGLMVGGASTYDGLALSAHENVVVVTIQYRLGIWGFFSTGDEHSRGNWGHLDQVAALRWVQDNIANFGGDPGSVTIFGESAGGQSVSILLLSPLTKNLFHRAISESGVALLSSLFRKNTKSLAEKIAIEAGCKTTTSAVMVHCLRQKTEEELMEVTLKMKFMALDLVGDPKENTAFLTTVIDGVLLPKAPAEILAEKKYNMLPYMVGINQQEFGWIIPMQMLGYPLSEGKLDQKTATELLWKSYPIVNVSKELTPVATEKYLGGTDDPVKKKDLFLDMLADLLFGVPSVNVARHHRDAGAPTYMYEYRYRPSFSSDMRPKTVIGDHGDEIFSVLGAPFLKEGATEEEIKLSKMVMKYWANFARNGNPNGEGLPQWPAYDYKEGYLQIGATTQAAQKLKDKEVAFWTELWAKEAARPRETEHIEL

[5] = target: T4, human acetylcholinesterase (hAcChE) (Homo sapiens, UniProt P22303); test: biochemical; type: biochemical
T4 construct: purchased Sigma Biochemicals (St. Louis, Mo.)
Description: Data was transferred to GraphPad Prism software, and Ki values were calculated as described in the Example above.

[6] = target: T5, human intestinal carboxylesterase in U373MGhiCE cells (Homo sapiens, UniProt O00748); test: Inhibition of intracellular carboxylesterase in U373MGhiCE cells; type: cell-based
T5 construct: expressed in transfected cells; host or cells: U373MG human glioma cells (U373MGhiCE)
T5 sequence (O00748 27-559): T1 sequence (O00748 27-559)
Description: To monitor the ability of the compounds to cross the cell membrane and inhibit carboxylesterase activity intracellularly, an assay using human tumor cells expressing hiCE was devised. U373MGhiCE (a human glioma cell line transfected with a plasmid expressing hiCE) were plated in T25 flasks and allowed to grow to confluency (approximately 2-5×10^5 cells). Inhibitors were then added at a final concentration of […], and incubation allowed to continue for 1 hour. At this time, the cells were washed extensively with 5 ml of complete media and 2×5 ml of Hanks balanced salt solution, and cell extracts were prepared. Carboxylesterase activity was then determined using o-NPA as a substrate.
Table 8 sets forth the level of intracellular enzyme inhibition following incubation of human glioblastoma tumor cells expressing human intestinal carboxylesterase with 10 μM of each compound identified in Table 3.

[7] = o-NPA as substrate, Table 6, read-out: hCE1 Ki ± SE
[8] = butyrylthiocholine as substrate, Table 6, read-out: hBuChE Ki
[9] = o-NPA as substrate, Table 6, read-out: rCE Ki ± SE
[10] = o-NPA as substrate, Table 6, read-out: hiCE Ki ± SE
[11] = acetylthiocholine as substrate, Table 6, read-out: hAcChE Ki
[12] = o-NPA as substrate, Table 5, read-out: Ki hiCE
[13] = o-NPA as substrate, Table 5, read-out: Ki hCE1
[14] = acetylthiocholine substrate, Table 5, read-out: Ki hAcChE

Sequence of human butyrylcholinesterase (hBuChE) (P06276 29-602): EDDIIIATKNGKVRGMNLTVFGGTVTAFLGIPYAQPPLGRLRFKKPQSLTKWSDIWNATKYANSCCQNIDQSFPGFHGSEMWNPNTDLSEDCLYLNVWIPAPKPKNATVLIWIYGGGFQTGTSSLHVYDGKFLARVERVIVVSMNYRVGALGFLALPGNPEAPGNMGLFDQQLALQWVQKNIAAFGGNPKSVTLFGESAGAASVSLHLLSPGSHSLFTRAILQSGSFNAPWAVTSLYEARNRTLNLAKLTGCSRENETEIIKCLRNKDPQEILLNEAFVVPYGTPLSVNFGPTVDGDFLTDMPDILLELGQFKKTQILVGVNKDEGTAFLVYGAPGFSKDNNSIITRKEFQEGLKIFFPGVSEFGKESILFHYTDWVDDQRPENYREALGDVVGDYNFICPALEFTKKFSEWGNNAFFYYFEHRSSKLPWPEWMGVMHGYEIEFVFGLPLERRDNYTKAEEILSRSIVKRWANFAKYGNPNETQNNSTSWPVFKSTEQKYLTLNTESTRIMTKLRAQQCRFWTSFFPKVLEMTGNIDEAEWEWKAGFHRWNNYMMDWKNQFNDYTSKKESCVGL
T4 sequence (P22303 32-614): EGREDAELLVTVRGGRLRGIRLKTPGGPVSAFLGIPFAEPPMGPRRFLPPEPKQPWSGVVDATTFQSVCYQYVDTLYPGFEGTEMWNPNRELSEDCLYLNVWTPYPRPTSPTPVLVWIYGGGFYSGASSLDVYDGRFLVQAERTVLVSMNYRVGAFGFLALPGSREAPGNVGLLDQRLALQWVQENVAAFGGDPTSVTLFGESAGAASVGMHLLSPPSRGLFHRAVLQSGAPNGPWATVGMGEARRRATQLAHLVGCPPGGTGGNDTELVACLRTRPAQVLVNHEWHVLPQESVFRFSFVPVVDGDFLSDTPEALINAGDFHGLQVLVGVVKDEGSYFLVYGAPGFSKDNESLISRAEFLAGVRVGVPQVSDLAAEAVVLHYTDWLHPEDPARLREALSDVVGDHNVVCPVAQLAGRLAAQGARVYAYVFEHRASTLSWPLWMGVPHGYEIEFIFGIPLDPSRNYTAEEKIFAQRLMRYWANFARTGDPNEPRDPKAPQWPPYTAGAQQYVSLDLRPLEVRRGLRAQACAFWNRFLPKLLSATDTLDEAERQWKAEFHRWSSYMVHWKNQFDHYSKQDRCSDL

SMILES | Ki [2, 7] [µM] | Ki [3, 8] [µM] | Ki [4, 9] [µM] | Ki [5] [µM] | Ki [3] [µM] | Ki [5, 11] [µM] | other results
O=C(C(=O)c1ccc(Br)c([N+](=O)[O-])c1)c1ccc(Br)c([N+](=O)[O-])c1 [Compound 4, 1,2-bis(4-bromo-3-nitrophenyl)ethane-1,2-dione] | > 100 | > 100 | 0.0087 ± 0.0013 | > 100 | – | – | Ki [1]: > 100 µM
COc1ccc(C(=O)C(=O)c2ccccc2Cl)cc1OC [Compound 8, 1-(2-chlorophenyl)-2-(3,4-dimethoxyphenyl)ethane-1,2-dione] | 3.3 | – | 0.036 ± 0.012 | – | > 100 | – | –
O=C(C(=O)c1cc(Br)ccc1O)c1cc(Br)ccc1O [Compound 9, 1,2-bis(5-bromo-2-hydroxyphenyl)ethane-1,2-dione] | – | > 100 | 0.0535 ± 0.0094 | > 100 | – | – | Ki [2]: > 100 µM
O=C(C(=O)c1ccc(O)cc1O)c1ccc(O)cc1O [Compound 10, 1,2-bis(2,4-dihydroxyphenyl)ethane-1,2-dione] | > 100 | – | > 100 | – | > 100 | > 100 | Ki [1, 10]: 1.73 µM
O=C(C(=O)c1ccc([N+](=O)[O-])cc1[N+](=O)[O-])c1ccccc1 [Compound 11, 1-(2,4-dinitrophenyl)-2-phenylethane-1,2-dione] | > 100 | > 100 | 0.52 ± 0.031 | > 100 | – | – | –
O=C(C(=O)c1c(Cl)c(Cl)c(Cl)c(Cl)c1Cl)c1c(F)c(F)c(F)c(F)c1F [Compound 12, 1-(pentachlorophenyl)-2-(pentafluorophenyl)ethane-1,2-dione] | – | > 100 | 0.823 ± 0.215 | > 100 | – | – | Ki ([2]; read-out: hCE1 Ki ± SE): 1.69 µM
CN(C)c1ccc(C(=O)C(=O)c2ccc(N(C)C)cc2)cc1 [Compound 13, 1,2-bis[4(dimethylamino)phenyl]ethane-1,2-dione] | > 100 | > 100 | 2.4 | – | – | > 100 | Ki [1, 10]: > 100 µM
O=C(C(=O)c1ccc(Br)cc1)c1ccc(Br)cc1 [Compound 15, 1,2-bis(4-bromophenyl)ethane-1,2-dione] | > 100 | – | 0.0041 ± 0.0005 | – | > 100 | > 100 | –
O=C(C(=O)c1ccc(Cl)cc1)c1ccc(Cl)cc1 [Compound 18, 1,2-bis(4-chlorophenyl)ethane-1,2-dione] | > 100 | – | 0.0141 ± 0.0025 | – | > 100 | > 100 | –
COc1ccc(C(=O)C(=O)c2ccc(OC)cc2)cc1 [Compound 21, 1,2-bis(4-methoxyphenyl)ethane-1,2-dione] | 3.41 | – | 0.58 ± 0.157 | – | > 100 | > 100 | –
O=C1C=Cc2ccccc2C1=O [Compound 29, Naphthalene-1,2-dione] | – | – | – | – | – | – | inhibition of hiCE [1]: inhibition; inhibition of hCE1 [2]: inhibition; inhibition of rCE [4]: inhibition; inhibition of hAcChE [5]: inhibited
O=C(C(=O)c1ccccc1Cl)c1ccccc1Cl [Compound 30, 1,2-bis(2-chlorophenyl)ethane-1,2-dione] | – | > 100 | 0.22 ± 0.037 | > 100 | – | – | Ki ([2]; read-out: hCE1 Ki ± SE): 1.65 µM
O=C(C(=O)c1ccc(Cl)cc1)c1ccccc1 [Compound 31, 1-(4-chlorophenyl)-2-phenylethane-1,2-dione] | 0.0474 ± 0.0068 | – | 0.0239 ± 0.0029 | – | > 100 | > 100 | –
Cc1ccc(C(=O)C(=O)c2ccccc2)cc1 [Compound 32, 1-(4-methylphenyl)-2-phenylethane-1,2-dione] | 0.125 ± 0.015 | > 100 | 0.119 ± 0.02 | – | – | > 100 | –
COc1cccc(C(=O)C(=O)c2cccc(OC)c2)c1 [Compound 33, 1,2-bis(3-methoxyphenyl)ethane-1,2-dione] | 1.54 | – | 0.0721 ± 0.0091 | – | > 100 | – | –
O=C(C(=O)c1cccc([N+](=O)[O-])c1)c1cccc([N+](=O)[O-])c1 [Compound 34, 1,2-bis(3-nitrophenyl)ethane-1,2-dione] | 18.1 | > 100 | – | > 100 | – | – | Ki ([4]; read-out: rCE Ki ± SE): 0.267 ± 0.03 µM
O=C(C(=O)c1ccc(O)cc1)c1ccc(O)cc1 [Compound 35, 1,2-bis(4-hydroxyphenyl)ethane-1,2-dione] | > 100 | – | > 100 | – | > 100 | > 100 | Ki [1, 10]: 1.2 µM
O=C(C(=O)c1ccc(O)c([N+](=O)[O-])c1)c1ccc(O)c([N+](=O)[O-])c1 [Compound 36, 1,2-bis(4-hydroxy-3-nitrophenyl)ethane-1,2-dione] | – | > 100 | – | > 100 | – | – | Ki [1]: > 100 µM; Ki [4]: > 100 µM
COc1ccc(C(=O)C(=O)c2ccc(OC)c([N+](=O)[O-])c2)cc1[N+](=O)[O-] [Compound 37, 1,2-bis(4-methoxy-3-nitrophenyl)ethane-1,2-dione] | – | > 100 | – | > 100 | – | – | Ki [1]: > 100 µM; Ki [2]: > 100 µM
O=C(C(=O)c1ccc(C(=O)C(=O)c2ccccc2)cc1)c1ccccc1 [Compound 38, 1-{4-[oxo(phenyl)acetyl]phenyl}-2-phenylethane-1,2-dione] | – | – | 0.0061 ± 0.0006 | – | – | > 100 | –
COc1cc(OC)c(NC(=O)c2cc3ccccc3cc2O)cc1Cl [Compound 42, N-(5-chloro-2,4-dimethoxyphenyl)-3-hydroxy-2-naphthamide] | – | – | – | – | – | – | inhibition at 10 µM [6]: 0%; Ki [1, 12]: 0.159 µM; Ki [2, 13]: > 100 µM; Ki [5, 14]: > 100 µM
Cc1cccc(C)c1NC(=O)Nc1ccc([N+](=O)[O-])cc1 [Compound 54, N-(2,6-dimethylphenyl)-N′-(4-nitrophenyl)urea] | – | – | – | – | – | – | inhibition at 10 µM [6]: 0%; Ki [1, 12]: 0.32 µM; Ki [2, 13]: > 100 µM; Ki [5, 14]: > 100 µM
Cc1cc([N+](=O)[O-])ccc1NC(=O)Nc1cccc(F)c1 [Compound 55, N-(3-fluorophenyl)-N′-(2-methyl-4-nitrophenyl)urea] | – | – | – | – | – | – | Ki [1, 12]: 1.28 µM; Ki [2, 13]: > 100 µM; Ki [5, 14]: > 100 µM
Cc1cc([N+](=O)[O-])ccc1NC(=O)Nc1ccccc1 [Compound 56, N-(2-methyl-4-nitrophenyl)-N′-phenylurea] | – | – | – | – | – | – | inhibition at 10 µM [6]: 0%; Ki [1, 12]: 1.52 µM; Ki [2, 13]: > 100 µM; Ki [5, 14]: > 100 µM
